Molecular target: HCV NS3-4A serine protease (full-length NS3-4A protein) (Hepatitis C virus genotype 1a (isolate 1) (HCV), UniProt P26664)
Assay: HCV NS3-4A protease assay
Format: biochemical, HCV genotype 1a
Details: strain HCV-1, fluorogenic peptide substrate, read-out: Protease assay Ex. 12 IC50
Method: The inhibitory activity of certain compounds of Table A against HCV NS3-4A serine protease is determined in a homogenous assay using the full-length NS3-4A protein (genotype 1a, strain HCV-1) and a commercially available internally-quenched fluorogenic peptide substrate as described by Taliani, M., et al. 1996 Anal. Biochem. 240:60-67, which is incorporated by reference in its entirety.

Sequence of HCV NS3-4A serine protease (full-length NS3-4A protein) (P26664 1027-1657): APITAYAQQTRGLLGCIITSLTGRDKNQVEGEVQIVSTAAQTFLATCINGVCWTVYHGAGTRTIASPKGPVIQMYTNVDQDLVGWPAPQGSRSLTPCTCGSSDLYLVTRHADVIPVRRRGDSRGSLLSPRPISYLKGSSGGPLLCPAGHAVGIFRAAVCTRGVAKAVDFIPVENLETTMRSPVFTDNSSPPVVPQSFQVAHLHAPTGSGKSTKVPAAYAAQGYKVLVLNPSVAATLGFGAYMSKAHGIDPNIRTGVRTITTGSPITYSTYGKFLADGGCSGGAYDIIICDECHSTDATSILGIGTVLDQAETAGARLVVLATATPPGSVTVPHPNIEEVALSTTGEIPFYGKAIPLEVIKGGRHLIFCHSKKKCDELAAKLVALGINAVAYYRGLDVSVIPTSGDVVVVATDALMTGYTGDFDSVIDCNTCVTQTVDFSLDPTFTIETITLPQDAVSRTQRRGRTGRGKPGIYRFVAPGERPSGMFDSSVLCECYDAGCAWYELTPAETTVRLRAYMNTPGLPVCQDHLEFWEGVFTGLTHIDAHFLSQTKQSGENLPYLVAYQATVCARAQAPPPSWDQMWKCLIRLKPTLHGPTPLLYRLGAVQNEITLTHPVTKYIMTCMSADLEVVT
Sequence of HCV NS3-4A serine protease (full-length NS3-4A protein) (P26664 1658-1711 partner): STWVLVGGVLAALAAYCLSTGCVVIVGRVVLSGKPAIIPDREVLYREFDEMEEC

SMILES	IC50 [nM]
[2H]C([2H])([2H])C([2H])([2H])N(C([2H])([2H])C([2H])([2H])[2H])S(=O)(=O)NC(=O)[C@@]1(NC(=O)[C@@H]2C[C@@]3(CN2C(=O)[C@@H](NC(=O)[C@@H](NC(=O)[C@@H]2CCCCN2C(C)C)C2CCCCC2)C(C)(C)C)C(C)(C)C32CCC2)C[C@H]1C=C [Compound 149, (5R,8S)-7-[(2S)-2-{[(2S)-2-cyclohexyl-2-({[(2S)-1-isopropylpiperidin-2-yl]carbonyl}amino)acetyl]amino}-3,3-dimethylbutanoyl]-N-[(1R,2S)-1-{[(d10-diethylamino)sulfonyl]carbamoyl}-2-vinylcyclopropyl]-10,10-dimethyl-7-azadispiro[3.0.4.1]decane-8-carboxamide-d10]	1.5
C=C[C@@H]1C[C@]1(NC(=O)[C@@H]1C[C@@]2(CN1C(=O)[C@@H](NC(=O)[C@@H](NC(=O)[C@@H]1CCCCN1C(C)C)C1CCCCC1)C1(C)CCOCC1)C(C)(C)C21CCC1)C(=O)NS(=O)(=O)N(CC)CC [Compound 150, (5R,8S)-7-[(2S)-2-{[(2S)-2-cyclohexyl-2-({[(2S)-1-isopropylpiperidin-2-yl]carbonyl}amino)acetyl]amino}-2-(4-methyltetrahydro-2H-pyran-4-yl)acetyl]-N-[(1R,2S)-1-{[(diethylamino)sulfonyl]carbamoyl}-2-vinylcyclopropyl]-10,10-dimethyl-7-azadispiro[3.0.4.1]decane-8-carboxamide]	2.4
C=C[C@@H]1C[C@]1(NC(=O)[C@@H]1C[C@@]2(CN1C(=O)[C@@H](NC(=O)[C@@H](NC(=O)[C@@H]1CCCCN1CC)C1CCCCC1)C1(C)CCOCC1)C(C)(C)C21CCC1)C(=O)NS(=O)(=O)N(CC)CC [Compound 151, (5R,8S)-7-[(2S)-2-{[(2S)-2-cyclohexyl-2-({[(2S)-1-ethylpiperidin-2-yl]carbonyl}amino)acetyl]amino}-2-(4-methyltetrahydro-2H-pyran-4-yl)acetyl]-N-[(1R,2S)-1-{[(diethylamino)sulfonyl]carbamoyl}-2-vinylcyclopropyl]-10,10-dimethyl-7-azadispiro[3.0.4.1]decane-8-carboxamide]	2
C=C[C@@H]1C[C@]1(NC(=O)[C@@H]1C[C@@]2(CN1C(=O)[C@@H](NC(=O)[C@@H](NC(=O)[C@@H]1CCCCN1C(C)C)C1(C)CCCCC1)C1(C)CCOCC1)C(C)(C)C21CCC1)C(=O)NS(=O)(=O)N(CC)CC [Compound 152, (5R,8S)-N-[(1R,2S)-1-{[(diethylamino)sulfonyl]carbamoyl}-2-vinylcyclopropyl]-7-[(2S)-2-{[(2S)-2-({[(2S)-1-isopropylpiperidin-2-yl]carbonyl}amino)-2-(1-methylcyclohexyl)acetyl]amino}-2-(4-methyltetrahydro-2H-pyran-4-yl)acetyl]-10,10-dimethyl-7-azadispiro[3.0.4.1]decane-8-carboxamide]	1.1
C=C[C@@H]1C[C@]1(NC(=O)[C@@H]1C[C@@]2(CN1C(=O)[C@@H](NC(=O)[C@@H](NC(=O)[C@@H]1CCCN1CC)C1(C)CCCCC1)C1(C)CCOCC1)C(C)(C)C21CCC1)C(=O)NS(=O)(=O)N(CC)CC [Compound 153, (5R,8S)-N-[(1R,2S)-1-{[(diethylamino)sulfonyl]carbamoyl}-2-vinylcyclopropyl]-7-[(2S)-2-{[(2S)-2-({[(2S)-1-ethylpyrrolidin-2-yl]carbonyl}amino)-2-(1-methylcyclohexyl)acetyl]amino}-2-(4-methyltetrahydro-2H-pyran-4-yl)acetyl]-10,10-dimethyl-7-azadispiro[3.0.4.1]decane-8-carboxamide]	1.8
C=C[C@@H]1C[C@]1(NC(=O)[C@@H]1C[C@@]2(CN1C(=O)[C@@H](NC(=O)[C@@H](NC(=O)[C@@H]1CCCN1CC)C1CCCCC1)C1(C)CCOCC1)C(C)(C)C21CCC1)C(=O)NS(=O)(=O)N(CC)CC [Compound 154, (5R,8S)-7-[(2S)-2-{[(2S)-2-cyclohexyl-2-({[(2S)-1-ethylpyrrolidin-2-yl]carbonyl}amino)acetyl]amino}-2-(4-methyltetrahydro-2H-pyran-4-yl)acetyl]-N-[(1R,2S)-1-{[(diethylamino)sulfonyl]carbamoyl}-2-vinylcyclopropyl]-10,10-dimethyl-7-azadispiro[3.0.4.1]decane-8-carboxamide]	2.8
C=C[C@@H]1C[C@]1(NC(=O)[C@@H]1C[C@@]2(CN1C(=O)[C@@H](NC(=O)[C@@H](NC(=O)[C@@H]1CCCCN1C(C)C)C1CCCCC1)C(C)(C)C)C(C)(C)C21CCC1)C(=O)NS(=O)(=O)N(CC)CC(F)F [Compound 155, (5R,8S)-7-[(2S)-2-{[(2S)-2-cyclohexyl-2-({[(2S)-1-isopropylpiperidin-2-yl]carbonyl}amino)acetyl]amino}-3,3-dimethylbutanoyl]-N-[(1R,2S)-1-({[(2,2-difluoroethyl)(ethyl)amino]sulfonyl}carbamoyl)-2-vinylcyclopropyl]-10,10-dimethyl-7-azadispiro[3.0.4.1]decane-8-carboxamide]	4.4
C=C[C@@H]1C[C@]1(NC(=O)[C@@H]1C[C@@]2(CN1C(=O)[C@@H](NC(=O)[C@@H](NC(=O)[C@@H]1CCCCN1C(C)C)C1CCCCC1)C(C)(C)C)C(C)(C)C21CCC1)C(=O)NS(=O)(=O)N(CC)CCF [Compound 156, (5R,8S)-7-[(2S)-2-{[(2S)-2-cyclohexyl-2-({[(2S)-1-isopropylpiperidin-2-yl]carbonyl}amino)acetyl]amino}-3,3-dimethylbutanoyl]-N-[(1R,2S)-1-({[ethyl(2-fluoroethyl)amino]sulfonyl}carbamoyl)-2-vinylcyclopropyl]-10,10-dimethyl-7-azadispiro[3.0.4.1]decane-8-carboxamide]	1.3
C=C[C@@H]1C[C@]1(NC(=O)[C@@H]1C[C@@]2(CN1C(=O)[C@@H](NC(=O)[C@@H](NC(=O)[C@@H]1CCCN1CC)C1(C)CCOCC1)C1(C)CCCCC1)C(C)(C)C21CCC1)C(=O)NS(=O)(=O)N(CC)CC [Compound 157, (5R,8S)-N-[(1R,2S)-1-{[(diethylamino)sulfonyl]carbamoyl}-2-vinylcyclopropyl]-7-[(2S)-2-{[(2S)-2-({[(2S)-1-ethylpyrrolidin-2-yl]carbonyl}amino)-2-(4-methyltetrahydro-2H-pyran-4-yl)acetyl]amino}-2-(1-methylcyclohexyl)acetyl]-10,10-dimethyl-7-azadispiro[3.0.4.1]decane-8-carboxamide]	1
C=C[C@@H]1C[C@]1(NC(=O)[C@@H]1C[C@@]2(CN1C(=O)[C@@H](NC(=O)[C@@H](NC(=O)[C@@H]1CCCCN1C(C)C)C1(C)CCOCC1)C1(C)CCCCC1)C(C)(C)C21CCC1)C(=O)NS(=O)(=O)N(CC)CC [Compound 158, (5R,8S)-N-[(1R,2S)-1-{[(diethylamino)sulfonyl]carbamoyl}-2-vinylcyclopropyl]-7-[(2S)-2-{[(2S)-2-({[(2S)-1-isopropylpiperidin-2-yl]carbonyl}amino)-2-(4-methyltetrahydro-2H-pyran-4-yl)acetyl]amino}-2-(1-methylcyclohexyl)acetyl]-10,10-dimethyl-7-azadispiro[3.0.4.1]decane-8-carboxamide]	22

— patent US8613914B2, “Peptidomimetic sulfamide compounds and antiviral uses thereof” (Novartis AG, priority 2009, dated 2013)
